{"source": "patent US20230099344A1", "about": "“COMPOUNDS AND METHODS FOR THE TARGETED DEGRADATION OF IRAK-4” (Arvinas Operations, Inc., priority 2021, published 2023)", "type_in_all_cases": "cell-based", "key": {"IL8": {"tested_on": "IL8", "experiment": "IL-1β stimulated IL8 inhibition assay in PBMC", "conditions": "human PBMCs, IL-1β stimulation, compound overnight, IL8 by MSD after 24 hrs; for IC50: read-out: IL1β stim IL8 inhibition IC50; for Emax: read-out: IL1β stim IL8 inhibition Ymax", "protocol": "(§1) IL-1β, LPS, or R848 Stimulated IL6 Inhibition and IL-1β Stimulated IL8 Inhibition Assay\n(§2) Human PBMC cells were seeded at 2.0×10^6 cells/mL, treated with compound overnight, and dosed with the EC50 concentration of each stimulant (either IL-1B. LPS, or R848) was determined for each donor. After 24 hrs, media was collected and analyzed by MSD for IL6 and/or IL8 levels."}, "IRAK-4 [1]": {"target": "T1, IRAK-4 (Homo sapiens, UniProt Q9NWZ3)", "T1 sequence (Q9NWZ3 1-460)": "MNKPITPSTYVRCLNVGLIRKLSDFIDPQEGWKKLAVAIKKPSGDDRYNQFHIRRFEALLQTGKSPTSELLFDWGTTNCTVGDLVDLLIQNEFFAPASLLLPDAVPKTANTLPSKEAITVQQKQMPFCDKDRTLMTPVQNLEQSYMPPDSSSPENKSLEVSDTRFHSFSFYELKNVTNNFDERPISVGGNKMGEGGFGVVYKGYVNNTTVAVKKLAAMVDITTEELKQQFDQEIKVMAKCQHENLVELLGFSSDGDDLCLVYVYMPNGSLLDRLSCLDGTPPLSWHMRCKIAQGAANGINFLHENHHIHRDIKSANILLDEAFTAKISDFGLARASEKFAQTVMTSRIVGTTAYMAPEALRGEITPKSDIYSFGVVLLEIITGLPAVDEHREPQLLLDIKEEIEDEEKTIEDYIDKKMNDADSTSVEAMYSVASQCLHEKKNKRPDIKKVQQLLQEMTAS", "experiment": "IRAK-4 ELISA, PBMC degradation", "design": "endogenous in cells; host or cells: PBMC", "conditions": "treated overnight", "procedure,_shortened": "(§3)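 Overnight compound treatment, started on the day of plating, of OCI-Ly10 (1×10^6/ml) and PBMC (2×10^6/ml) cultures. Lysates are collected and IRAK-4 content is read by sandwich ELISA.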"}, "IL6": {"tested_on": "IL6", "experiment": "IL-1β stimulated IL6 inhibition assay in PBMC", "conditions": "PBMC, human PBMCs, IL-1β stimulation, compound overnight, IL6 by MSD after 24 hrs; for IC50: Homo sapiens, 24 h, read-out: IL1β stim IL6 inhibition IC50; for Emax: read-out: IL1β stim IL6 inhibition Ymax", "protocol": "as §1, §2"}, "IRAK-4 [2]": {"target": "T1, IRAK-4", "experiment": "IRAK-4 ELISA, OCI-Ly10 degradation", "design": "endogenous in cells", "conditions": "treated overnight; for Dmax: OCI-Ly10, OCI-Ly10 cells; for DC50: OCI-Ly10 cells", "procedure,_shortened": "as §3"}}, "data": [{"smiles": "O=C1CCC(N2C(=O)c3ccc(N4CCC(CN5CC[C@H](n6cc7cc(NC(=O)c8cnn9cccnc89)c(OCC8CC8)cc7n6)[C@@H](F)C5)CC4)cc3C2=O)C(=O)N1", "note": "(some centres unmarked) [Example 184]", "values": [{"measurement": "IC50", "setting": "IL8", "result": "0.01 to 0.05", "unit": "µM"}, {"measurement": "Emax", "setting": "IL8", "result": "< 70", "unit": "%"}, {"measurement": "DC50", "setting": "IRAK-4 [1]", "result": "0.001 to 0.005", "unit": "µM"}, {"measurement": "Dmax", "setting": "IRAK-4 [1]", "result": "80 to 90", "unit": "%"}, {"measurement": "PBMC DC90", "setting": "IRAK-4 [1]", "result": "C (C represents a DC90 value ≥25.0 nM and <50 nM)"}, {"measurement": "IC50", "setting": "IL6", "result": "0.01 to 0.05", "unit": "µM"}, {"measurement": "Emax", "setting": "IL6", "result": "80 to 90", "unit": "%"}, {"measurement": "Dmax", "setting": "IRAK-4 [2]", "result": "< 70", "unit": "%"}, {"measurement": "DC50", "setting": "IRAK-4 [2]", "result": "< 0.01", "unit": "µM"}]}, {"smiles": "COc1cc2nn(C3CCN(CC4CN(c5ccc6c(c5)C(=O)N(C5CCC(=O)NC5=O)C6=O)C4)CC3)cc2cc1NC(=O)c1cnn2cccnc12", "note": "(centres unmarked) [Example 202]", "values": [{"measurement": "IC50", "setting": "IL8", "result": "≥ 0.1", "unit": "µM"}, {"measurement": "DC50", "setting": "IRAK-4 [1]", "result": "< 0.001", "unit": "µM"}, {"measurement": "Dmax", "setting": "IRAK-4 [1]", "result": "≥ 90", "unit": "%"}, {"measurement": "PBMC DC90", "setting": "IRAK-4 [1]", "result": "A (A represents a DC90 value <10.0 nM)"}, {"measurement": "IC50", "setting": "IL6", "result": "0.01 to 0.05", "unit": "µM"}, {"measurement": "Emax", "setting": "IL6", "result": "80 to 90", "unit": "%"}, {"measurement": "Dmax", "setting": "IRAK-4 [2]", "result": "≥ 90", "unit": "%"}, {"measurement": "DC50", "setting": "IRAK-4 [2]", "result": "< 0.01", "unit": "µM"}]}, {"smiles": "COc1cc2nn(C3CCN(CC4(F)CN(c5ccc6c(c5)C(=O)N(C5CCC(=O)NC5=O)C6=O)C4)CC3)cc2cc1NC(=O)c1cnn2cccnc12", "note": "(centres unmarked) [Example 207]", "values": [{"measurement": "IC50", "setting": "IL8", "result": "0.05 to 0.1", "unit": "µM"}, {"measurement": "Emax", "setting": "IL8", "result": "< 70", "unit": "%"}, {"measurement": "DC50", "setting": "IRAK-4 [1]", "result": "0.001 to 0.005", "unit": "µM"}, {"measurement": "Dmax", "setting": "IRAK-4 [1]", "result": "≥ 90", "unit": "%"}, {"measurement": "PBMC DC90", "setting": "IRAK-4 [1]", "result": "B (B represents a DC90 value ≥10.0 nM and <25.0 nM)"}, {"measurement": "IC50", "setting": "IL6", "result": "0.01 to 0.05", "unit": "µM"}, {"measurement": "Emax", "setting": "IL6", "result": "≥ 90", "unit": "%"}, {"measurement": "Dmax", "setting": "IRAK-4 [2]", "result": "≥ 90", "unit": "%"}, {"measurement": "DC50", "setting": "IRAK-4 [2]", "result": "< 0.01", "unit": "µM"}]}, {"smiles": "COc1cc2nn([C@H]3CC[C@H](OC4CN(c5ccc6c(c5)C(=O)N(C5CCC(=O)NC5=O)C6=O)C4)CC3)cc2cc1NC(=O)c1cnn2cccnc12", "note": "(some centres unmarked) [Example 212]", "values": [{"measurement": "IC50", "setting": "IL8", "result": "0.05 to 0.1", "unit": "µM"}, {"measurement": "Emax", "setting": "IL8", "result": "< 70", "unit": "%"}, {"measurement": "DC50", "setting": "IRAK-4 [1]", "result": "< 0.001", "unit": "µM"}, {"measurement": "Dmax", "setting": "IRAK-4 [1]", "result": "≥ 90", "unit": "%"}, {"measurement": "PBMC DC90", "setting": "IRAK-4 [1]", "result": "A (A represents a DC90 value <10.0 nM)"}, {"measurement": "IC50", "setting": "IL6", "result": "0.01 to 0.05", "unit": "µM"}, {"measurement": "Emax", "setting": "IL6", "result": "80 to 90", "unit": "%"}, {"measurement": "Dmax", "setting": "IRAK-4 [2]", "result": "≥ 90", "unit": "%"}, {"measurement": "DC50", "setting": "IRAK-4 [2]", "result": "< 0.01", "unit": "µM"}]}, {"smiles": "COc1cc2nn(C3CCN(CC4(F)CN(c5ccc6c(c5)CN(C5CCC(=O)NC5=O)C6=O)C4)CC3)cc2cc1NC(=O)c1cnn2cccnc12", "note": "(centres unmarked) [Example 274]", "values": [{"measurement": "IC50", "setting": "IL8", "result": "0.05 to 0.1", "unit": "µM"}, {"measurement": "Emax", "setting": "IL8", "result": "70 to 80", "unit": "%"}, {"measurement": "DC50", "setting": "IRAK-4 [1]", "result": "< 0.001", "unit": "µM"}, {"measurement": "Dmax", "setting": "IRAK-4 [1]", "result": "80 to 90", "unit": "%"}, {"measurement": "PBMC DC90", "setting": "IRAK-4 [1]", "result": "A (A represents a DC90 value <10.0 nM)"}, {"measurement": "IC50", "setting": "IL6", "result": "0.01 to 0.05", "unit": "µM"}, {"measurement": "Emax", "setting": "IL6", "result": "≥ 90", "unit": "%"}, {"measurement": "Dmax", "setting": "IRAK-4 [2]", "result": "< 70", "unit": "%"}, {"measurement": "DC50", "setting": "IRAK-4 [2]", "result": "< 0.01", "unit": "µM"}]}, {"smiles": "O=C1CCC(N2Cc3cc(N4CCC(F)(CN5CCC(n6cc7cc(NC(=O)c8cnn9cccnc89)c(OCC8CC8)cc7n6)CC5)CC4)ccc3C2=O)C(=O)N1", "note": "(centres unmarked) [Example 278]", "values": [{"measurement": "IC50", "setting": "IL8", "result": "0.01 to 0.05", "unit": "µM"}, {"measurement": "Emax", "setting": "IL8", "result": "≥ 90", "unit": "%"}, {"measurement": "DC50", "setting": "IRAK-4 [1]", "result": "< 0.001", "unit": "µM"}, {"measurement": "Dmax", "setting": "IRAK-4 [1]", "result": "80 to 90", "unit": "%"}, {"measurement": "PBMC DC90", "setting": "IRAK-4 [1]", "result": "A (A represents a DC90 value <10.0 nM)"}, {"measurement": "IC50", "setting": "IL6", "result": "0.01 to 0.05", "unit": "µM"}, {"measurement": "Emax", "setting": "IL6", "result": "≥ 90", "unit": "%"}, {"measurement": "Dmax", "setting": "IRAK-4 [2]", "result": "80 to 90", "unit": "%"}, {"measurement": "DC50", "setting": "IRAK-4 [2]", "result": "< 0.01", "unit": "µM"}]}, {"smiles": "O=C1CCC(N2Cc3cc(N4CC(F)(CN5CCC(n6cc7cc(NC(=O)c8cnn9cccnc89)c(OCC8CC8)cc7n6)CC5)C4)ccc3C2=O)C(=O)N1", "note": "(centres unmarked) [Example 279]", "values": [{"measurement": "IC50", "setting": "IL8", "result": "≥ 0.1", "unit": "µM"}, {"measurement": "Emax", "setting": "IL8", "result": "80 to 90", "unit": "%"}, {"measurement": "DC50", "setting": "IRAK-4 [1]", "result": "< 0.001", "unit": "µM"}, {"measurement": "Dmax", "setting": "IRAK-4 [1]", "result": "≥ 90", "unit": "%"}, {"measurement": "PBMC DC90", "setting": "IRAK-4 [1]", "result": "A (A represents a DC90 value <10.0 nM)"}, {"measurement": "IC50", "setting": "IL6", "result": "0.01 to 0.05", "unit": "µM"}, {"measurement": "Emax", "setting": "IL6", "result": "≥ 90", "unit": "%"}, {"measurement": "Dmax", "setting": "IRAK-4 [2]", "result": "70 to 80", "unit": "%"}, {"measurement": "DC50", "setting": "IRAK-4 [2]", "result": "< 0.01", "unit": "µM"}]}, {"smiles": "CC(C)Oc1cc2c(cc1NC(=O)c1cnn3cccnc13)CN(C1CCN(C3CCN(c4ccc5c(c4)CN(C4CCC(=O)NC4=O)C5=O)CC3)CC1)C2=O", "note": "(centres unmarked) [Example 282]", "values": [{"measurement": "IC50", "setting": "IL8", "result": "0.01 to 0.05", "unit": "µM"}, {"measurement": "Emax", "setting": "IL8", "result": "< 70", "unit": "%"}, {"measurement": "DC50", "setting": "IRAK-4 [1]", "result": "< 0.001", "unit": "µM"}, {"measurement": "Dmax", "setting": "IRAK-4 [1]", "result": "≥ 90", "unit": "%"}, {"measurement": "PBMC DC90", "setting": "IRAK-4 [1]", "result": "A (A represents a DC90 value <10.0 nM)"}, {"measurement": "IC50", "setting": "IL6", "result": "< 0.01", "unit": "µM"}, {"measurement": "Emax", "setting": "IL6", "result": "≥ 90", "unit": "%"}, {"measurement": "Dmax", "setting": "IRAK-4 [2]", "result": "≥ 90", "unit": "%"}, {"measurement": "DC50", "setting": "IRAK-4 [2]", "result": "< 0.01", "unit": "µM"}]}]}
